IC50 data for 25 molecules are collected here from US10954228B2 (NATIONAL INSTITUTES OF HEALTH, UNITED STATES DEPARTMENT OF …, priority 2016, dated 2021).

Some results are limits rather than exact numbers.

In this assay the target is Human LDHA (Homo sapiens (Human), UniProt P00338). Put plainly: human LDHA primary biochemical assay. The conditions noted are these: biochemical LDHA inhibitory activity, assay of Example 1; activity level classes defined in nM. In short, it runs like this: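 Human LDHA at 2 nM with 0.06 mM NADH and 0.2 mM sodium pyruvate in 200 mM Tris HCl pH 7.4, 100 μM EDTA, 0.01% TWEEN-20 (final). NADH consumption coupled to resazurin/diaphorase (0.037 mM; 0.133 mg/mL); inhibition read by fluorescence.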

With `Cc1nc(C#Cc2cccc(-c3nn(-c4nc(C(=O)O)cs4)c(CCC4CC4)c3Cc3ccc(S(N)(=O)=O)c(F)c3)c2)cs1` [Compound 243, 2-(5-(2-cyclopropylethyl)-4-(3-fluoro-4-sulfamoylbenzyl)-3-(3-((2-methylthiazol-4-yl)ethynyl)phenyl)-1H-pyrazol-1-yl)thiazole-4-carboxylic acid], the 50% inhibitory concentration (IC50) is < 100 nM.

Regarding `CN(C)c1cccc(-c2cc(-c3nn(-c4nc(C(=O)O)cs4)c(CC4CC4)c3Cc3ccc(S(N)(=O)=O)c(F)c3)ccc2F)c1` [Compound 194, 2-(5-(cyclopropylmethyl)-3-(3′-(dimethylamino)-6-fluoro-[1,1′-biphenyl]-3-yl)-4-(3-fluoro-4-sulfamoylbenzyl)-1H-pyrazol-1-yl)thiazole-4-carboxylic acid], the half-maximal inhibitory concentration (IC50) was < 100 nM.

Consider `Cc1cc(-c2cc(-c3nn(-c4nc(C(=O)O)cs4)c(CC4CC4)c3Cc3ccc(S(N)(=O)=O)c(F)c3)ccc2F)ccc1Cl` [Compound 185, 2-(3-(4′-chloro-6-fluoro-3′-methyl-[1,1′-biphenyl]-3-yl)-5-(cyclopropylmethyl)-4-(3-fluoro-4-sulfamoylbenzyl)-1H-pyrazol-1-yl)thiazole-4-carboxylic acid], for which the IC50 lay within 100 to 1000 nM.

On to `COc1ccc(-c2cc(-c3nn(-c4nc(C(=O)O)cs4)c(CC4CC4)c3Cc3ccc(S(N)(=O)=O)c(F)c3)ccc2F)cc1Cl` [Compound 191, 2-(3-(3′-chloro-6-fluoro-4′-methoxy-[1,1′-biphenyl]-3-yl)-5-(cyclopropylmethyl)-4-(3-fluoro-4-sulfamoylbenzyl)-1H-pyrazol-1-yl)thiazole-4-carboxylic acid], for which the half-maximal inhibitory concentration (IC50) was < 100 nM.

For the molecule `NS(=O)(=O)c1ccc(Cc2c(-c3cccc(-c4nc5ccccc5[nH]4)c3)nn(-c3nc(C(=O)O)cs3)c2CC2CC2)cc1F` [Compound 189, 2-(3-(3-(1H-benzo[d]imidazol-2-yl)phenyl)-5-(cyclopropylmethyl)-4-(3-fluoro-4-sulfamoylbenzyl)-1H-pyrazol-1-yl)thiazole-4-carboxylic acid], the half-inhibitory concentration (IC50) was < 100 nM.

On to `NS(=O)(=O)c1ccc(Cc2c(-c3ccc(F)c(C4=CCCO4)c3)nn(-c3nc(C(=O)O)cs3)c2CC2CC2)cc1F` [Compound 148, 2-(5-(cyclopropylmethyl)-3-(3-(4,5-dihydrofuran-2-yl)-4-fluorophenyl)-4-(3-fluoro-4-sulfamoylbenzyl)-1H-pyrazol-1-yl)thiazole-4-carboxylic acid], for which the IC50 is < 100 nM.

With `Cc1ccc(C#Cc2cccc(-c3nn(-c4nc(C(=O)O)cs4)c(CC4CC4)c3Cc3ccc(S(N)(=O)=O)c(F)c3)n2)s1` [Compound 231, 2-(5-(cyclopropylmethyl)-4-(3-fluoro-4-sulfamoylbenzyl)-3-(6-((5-methylthiophen-2-yl)ethynyl)pyridin-2-yl)-1H-pyrazol-1-yl)thiazole-4-carboxylic acid], the half-inhibitory concentration (IC50) was < 100 nM.

`NS(=O)(=O)c1ccc(Cc2c(-c3cccc(-c4ccc(C5CCC5)cc4)c3)nn(-c3nc(C(=O)O)cs3)c2CC2CC2)cc1F` [Compound 184, 2-(3-(4′-cyclobutyl-[1,1′-biphenyl]-3-yl)-5-(cyclopropylmethyl)-4-(3-fluoro-4-sulfamoylbenzyl)-1H-pyrazol-1-yl)thiazole-4-carboxylic acid] registered an IC50 of 100 to 1000 nM.

In turn, `CC(C)c1ccc(-c2cccc(-c3nn(-c4nc(C(=O)O)cs4)c(CC4CC4)c3Cc3ccc(S(N)(=O)=O)c(F)c3)c2)cc1F` [Compound 230, 2-(5-(cyclopropylmethyl)-3-(3′-fluoro-4′-isopropyl-[1,1′-biphenyl]-3-yl)-4-(3-fluoro-4-sulfamoylbenzyl)-1H-pyrazol-1-yl)thiazole-4-carboxylic acid] gave an IC50 of 100 to 1000 nM.

As to `NS(=O)(=O)c1ccc(Cc2c(-c3ccc(F)c(-c4nc5ccccc5[nH]4)c3)nn(-c3nc(C(=O)O)cs3)c2CC2CC2)cc1F` [Compound 160, 2-(3-(3-(1H-benzo[d]imidazol-2-yl)-4-fluorophenyl)-5-(cyclopropylmethyl)-4-(3-fluoro-4-sulfamoylbenzyl)-1H-pyrazol-1-yl)thiazole-4-carboxylic acid], the IC50 is < 100 nM.

`NS(=O)(=O)c1ccc(Cc2c(-c3cccc(-c4ccc(C(F)(F)F)cc4)c3)nn(-c3nc(C(=O)O)cs3)c2CC2CC2)cc1F` [Compound 219, 2-(5-(cyclopropylmethyl)-4-(3-fluoro-4-sulfamoylbenzyl)-3-(4′-(trifluoromethyl)-[1,1′-biphenyl]-3-yl)-1H-pyrazol-1-yl)thiazole-4-carboxylic acid]: the 50% inhibitory concentration (IC50) was < 100 nM.

In turn, `Cc1cc(C#Cc2cccc(-c3nn(-c4nc(C(=O)O)cs4)c(CC4CC4)c3Cc3ccc(S(N)(=O)=O)c(F)c3)c2)c(C)s1` [Compound 241, 2-(5-(cyclopropylmethyl)-3-(3-((2,5-dimethylthiophen-3-yl)ethynyl)phenyl)-4-(3-fluoro-4-sulfamoylbenzyl)-1H-pyrazol-1-yl)thiazole-4-carboxylic acid] returned an IC50 of 100 to 1000 nM.

`NS(=O)(=O)c1ccc(Cc2c(-c3cccc(-c4ccc(O)c(F)c4)c3)nn(-c3nc(C(=O)O)cs3)c2CC2CC2)cc1F` [Compound 229, 2-(5-(cyclopropylmethyl)-3-(3′-fluoro-4′-hydroxy-[1,1′-biphenyl]-3-yl)-4-(3-fluoro-4-sulfamoylbenzyl)-1H-pyrazol-1-yl)thiazole-4-carboxylic acid]: the half-inhibitory concentration (IC50) was < 100 nM.

For `Cc1cc(-c2cccc(-c3nn(-c4nc(C(=O)O)cs4)c(CC4CC4)c3Cc3ccc(S(N)(=O)=O)c(F)c3)c2)ccc1O` [Compound 228, 2-(5-(cyclopropylmethyl)-4-(3-fluoro-4-sulfamoylbenzyl)-3-(4′-hydroxy-3′-methyl-[1,1′-biphenyl]-3-yl)-1H-pyrazol-1-yl)thiazole-4-carboxylic acid], the half-maximal inhibitory concentration (IC50) is < 100 nM.

The molecule `NS(=O)(=O)c1ccc(Cc2c(-c3cccc(C#Cc4ccc(C5CCC5)s4)c3)nn(-c3nc(C(=O)O)cs3)c2CC2CC2)cc1F` [Compound 245, 2-(3-(3-((5-cyclobutylthiophen-2-yl)ethynyl)phenyl)-5-(cyclopropylmethyl)-4-(3-fluoro-4-sulfamoylbenzyl)-1H-pyrazol-1-yl)thiazole-4-carboxylic acid] gave an IC50 of 100 to 1000 nM.

As for `N#Cc1cccc(-c2cc(-c3nn(-c4nc(C(=O)O)cs4)c(CC4CC4)c3Cc3ccc(S(N)(=O)=O)c(F)c3)ccc2F)c1` [Compound 200, 2-(3-(3′-cyano-6-fluoro-[1,1′-biphenyl]-3-yl)-5-(cyclopropylmethyl)-4-(3-fluoro-4-sulfamoylbenzyl)-1H-pyrazol-1-yl)thiazole-4-carboxylic acid], the IC50 is < 100 nM.

For `Cc1cnc(-c2cccc(-c3nn(-c4nc(C(=O)O)cs4)c(CC4CC4)c3Cc3ccc(S(N)(=O)=O)c(F)c3)c2)nc1` [Compound 217], the IC50 was < 100 nM.

For `NS(=O)(=O)c1ccc(Cc2c(-c3cccc(-c4ccc(C5CC5)cc4)c3)nn(-c3nc(C(=O)O)cs3)c2CC2CC2)cc1F` [Compound 183, 2-(3-(4′-cyclopropyl-[1,1′-biphenyl]-3-yl)-5-(cyclopropylmethyl)-4-(3-fluoro-4-sulfamoylbenzyl)-1H-pyrazol-1-yl)thiazole-4-carboxylic acid], the IC50 is < 100 nM.

Turning to `Cc1cc(C#Cc2cccc(-c3nn(-c4nc(C(=O)O)cs4)c(CCC4CC4)c3Cc3ccc(S(N)(=O)=O)c(F)c3)c2)cs1` [Compound 239, 2-(5-(2-cyclopropylethyl)-4-(3-fluoro-4-sulfamoylbenzyl)-3-(3-((5-methylthiophen-3-yl)ethynyl)phenyl)-1H-pyrazol-1-yl)thiazole-4-carboxylic acid], the concentration for half-maximal inhibition (IC50) fell in the range of 100 to 1000 nM.

The molecule `Cc1cc(C#Cc2cccc(-c3nn(-c4nc(C(=O)O)cs4)c(CCC4CC4)c3Cc3ccc(S(N)(=O)=O)c(F)c3)c2)c(C)s1` [Compound 238, 2-(5-(2-cyclopropylethyl)-3-(3-((2,5-dimethylthiophen-3-yl)ethynyl)phenyl)-4-(3-fluoro-4-sulfamoylbenzyl)-1H-pyrazol-1-yl)thiazole-4-carboxylic acid] returned a concentration for half-maximal inhibition (IC50) of 100 to 1000 nM.

With `CC(C)Cc1ccc(-c2cccc(-c3nn(-c4nc(C(=O)O)cs4)c(CCC4CC4)c3Cc3ccc(S(N)(=O)=O)c(F)c3)c2)cc1` [Compound 207, 2-(5-(2-cyclopropylethyl)-4-(3-fluoro-4-sulfamoylbenzyl)-3-(4′-isobutyl-[1,1′-biphenyl]-3-yl)-1H-pyrazol-1-yl)thiazole-4-carboxylic acid], the IC50 was in the range of 100 to 1000 nM.

As for `CCc1cc(-c2cc(-c3nn(-c4nc(C(=O)O)cs4)c(CC4CC4)c3Cc3ccc(S(N)(=O)=O)c(F)c3)ccc2F)ccc1OC` [Compound 223, 2-(5-(cyclopropylmethyl)-3-(3′-ethyl-6-fluoro-4′-methoxy-[1,1′-biphenyl]-3-yl)-4-(3-fluoro-4-sulfamoylbenzyl)-1H-pyrazol-1-yl)thiazole-4-carboxylic acid], the IC50 lay in the range of 100 to 1000 nM.

For the molecule `COc1ccc(-c2cccc(-c3nn(-c4nc(C(=O)O)cs4)c(CC4CC4)c3Cc3ccc(S(N)(=O)=O)c(F)c3)c2)cc1Cl` [Compound 172, 2-(3-(3′-chloro-4′-methoxy-[1,1′-biphenyl]-3-yl)-5-(cyclopropylmethyl)-4-(3-fluoro-4-sulfamoylbenzyl)-1H-pyrazol-1-yl)thiazole-4-carboxylic acid], the IC50 lay in the range of 100 to 1000 nM.

Regarding `Cc1ccc(-c2ccc(-c3cc(-c4nn(-c5nc(C(=O)O)cs5)c(CC5CC5)c4Cc4ccc(S(N)(=O)=O)c(F)c4)ccc3F)cc2)s1` [Compound 209, 2-(5-(cyclopropylmethyl)-3-(6-fluoro-4′-(5-methylthiophen-2-yl)-[1,1′-biphenyl]-3-yl)-4-(3-fluoro-4-sulfamoylbenzyl)-1H-pyrazol-1-yl)thiazole-4-carboxylic acid], the IC50 fell in the range of 100 to 1000 nM.

Consider `Cc1ccc(-c2ccc(-c3cccc(-c4nn(-c5nc(C(=O)O)cs5)c(CC5CC5)c4Cc4ccc(S(N)(=O)=O)c(F)c4)c3)cc2)s1` [Compound 208, 2-(5-(cyclopropylmethyl)-4-(3-fluoro-4-sulfamoylbenzyl)-3-(4′-(5-methylthiophen-2-yl)-[1,1′-biphenyl]-3-yl)-1H-pyrazol-1-yl)thiazole-4-carboxylic acid], for which the IC50 was in the range of 100 to 1000 nM.

Broadly, the IC50 is the concentration needed to halve the response being measured.
